From US20250019387A1 (Frontier Medicines Corporation, priority 0001, published 2025)

target: KRAS G12C and cRAF (Ras-binding domain) interaction (Homo sapiens (Human), UniProt P01116, C118S/C51S/C80L/G12C); test: Inhibition of KRAS G12C and cRAF binding (AlphaScreen); conditions: GMPPNP-loaded KRAS G12C, 19-20 hours incubation with compound; read-out: IC50 (Inhibition of KRAS G12C and cRAF Binding)
Method in brief: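 IC50 values come from 4-parameter nonlinear regression of AlphaScreen signal (680 nm excitation, 570 nm emission). Compound plates sat 19-20 h at room temperature before RBD and donor/acceptor beads were added in Hepes pH 7.4 buffer with 150 mM NaCl, 5 mM MgCl2, 2% DMSO for 60-90 min; biotin-AviTag-GST replaced RBD to flag assay-technology interferers.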

KRAS G12C and cRAF (Ras-binding domain) interaction, sequence (P01116 other isoform, or with tags, fused parts or gaps G12C/C51S/C80L/C118S): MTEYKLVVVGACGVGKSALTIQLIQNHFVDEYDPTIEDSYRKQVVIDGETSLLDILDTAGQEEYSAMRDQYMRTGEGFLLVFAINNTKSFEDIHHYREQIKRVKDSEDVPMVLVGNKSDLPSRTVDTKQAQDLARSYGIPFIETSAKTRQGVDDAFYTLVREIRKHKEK

IC50	Structure (SMILES)
10 to 100 nM	C#Cc1c(F)ccc2cccc(-c3ncc4c(N(C)[C@@H]5CCN(C(=O)/C=C/c6cc(C)nc(C)n6)C5)nc(OC[C@@]56CCCN5C[C@H](F)C6)nc4c3F)c12 [Example 207, (E)-3-(2,6-dimethylpyrimidin-4-yl)-1-((R)-3-((7-(8-ethynyl-7-fluoronaphthalen-1-yl)-8-fluoro-2-(((2R,7aS)-2-fluorotetrahydro-1H-pyrrolizin-7a(5H)-yl)methoxy)pyrido[4,3-d]pyrimidin-4-yl)(methyl)amino)pyrrolidin-1-yl)prop-2-en-1-one]
< 10 nM	C[C@H](F)c1noc(/C=C/C(=O)N2CC[C@@H](N(C)c3nc(OC[C@@]45CCCN4C[C@H](F)C5)nc4c(F)c(-c5cccc6cccc(Cl)c56)ncc34)C2)n1 [Example 77, (E)-1-((R)-3-((7-(8-chloronaphthalen-1-yl)-8-fluoro-2-(((2R,7aS)-2-fluorohexahydro-1H-pyrrolizin-7a-yl)methoxy)pyrido[4,3-d]pyrimidin-4-yl)(methyl)amino)pyrrolidin-1-yl)-3-(3-((S)-1-fluoroethyl)-1,2,4-oxadiazol-5-yl)prop-2-en-1-one]
100 to 500 nM	Cc1cc(/C=C/C(=O)N2CC(CN(C)c3nc(OC[C@@]45CCCN4C[C@H](F)C5)nc4c(F)c(-c5cccc6ccc(F)c(Cl)c56)ncc34)C2)nc(C)n1 [Example 273, (E)-1-(3-(((7-(8-chloro-7-fluoronaphthalen-1-yl)-8-fluoro-2-(((2R,7aS)-2-fluorotetrahydro-1H-pyrrolizin-7a(5H)-yl)methoxy)pyrido[4,3-d]pyrimidin-4-yl)(methyl)amino)methyl)azetidin-1-yl)-3-(2,6-dimethylpyrimidin-4-yl)prop-2-en-1-one]
< 10 nM	CN(c1nc(OC[C@@]23CCCN2C[C@H](F)C3)nc2c(F)c(-c3cccc4cccc(Cl)c34)ncc12)[C@@H]1CCN(C(=O)/C=C/c2nc(C(F)F)no2)C1 [Example 157, (E)-1-((R)-3-((7-(8-chloronaphthalen-1-yl)-8-fluoro-2-(((2R,7aS)-2-fluorotetrahydro-1H-pyrrolizin-7a(5H)-yl)methoxy)pyrido[4,3-d]pyrimidin-4-yl)(methyl)amino)pyrrolidin-1-yl)-3-(3-(difluoromethyl)-1,2,4-oxadiazol-5-yl)prop-2-en-1-one]
10 to 100 nM	COCCN1CC[C@@H]1/C=C/C(=O)N1CC[C@@H](N(C)c2nc(OC[C@@]34CCCN3C[C@H](F)C4)nc3c(F)c(-c4cccc5ccc(F)c(Cl)c45)ncc23)C1 [Example 212, (E)-1-((R)-3-((7-(8-chloro-7-fluoronaphthalen-1-yl)-8-fluoro-2-(((2R,7aS)-2-fluorotetrahydro-1H-pyrrolizin-7a(5H)-yl)methoxy)pyrido[4,3-d]pyrimidin-4-yl)(methyl)amino)pyrrolidin-1-yl)-3-((R)-1-(2-methoxyethyl)azetidin-2-yl)prop-2-en-1-one]
< 10 nM	CN1CC(=CC(=O)N2CC[C@@H](N(C)c3nc(OC[C@@]45CCCN4C[C@H](F)C5)nc4c(F)c(-c5cccc6ccc(F)c(F)c56)ncc34)C2)C1 [Example 299, 1-((R)-3-((7-(7,8-difluoronaphthalen-1-yl)-8-fluoro-2-(((2R,7aS)-2-fluorotetrahydro-1H-pyrrolizin-7a(5H)-yl)methoxy)pyrido[4,3-d]pyrimidin-4-yl)(methyl)amino)pyrrolidin-1-yl)-2-(1-methylazetidin-3-ylidene)ethan-1-one]
10 to 100 nM	C#Cc1c(F)ccc2cccc(-c3ncc4c(N(C)[C@@H]5CCN(C(=O)/C=C/c6ccnc(C)n6)C5)nc(OC[C@@]56CCCN5C[C@H](F)C6)nc4c3F)c12 [Example 278, (E)-1-((R)-3-((7-(8-ethynyl-7-fluoronaphthalen-1-yl)-8-fluoro-2-(((2R,7aS)-2-fluorotetrahydro-1H-pyrrolizin-7a(5H)-yl)methoxy)pyrido[4,3-d]pyrimidin-4-yl)(methyl)amino)pyrrolidin-1-yl)-3-(2-methylpyrimidin-4-yl)prop-2-en-1-one]
10 to 100 nM	CN1CC(=CC(=O)N2CC[C@@H](N(C)c3nc(OC[C@@]45CCCN4C[C@H](F)C5)nc4c(F)c(-c5cccc6cccc(Cl)c56)ncc34)C2)C1 [Example 276, 1-((R)-3-((7-(8-chloronaphthalen-1-yl)-8-fluoro-2-(((2R,7aS)-2-fluorotetrahydro-1H-pyrrolizin-7a(5H)-yl)methoxy)pyrido[4,3-d]pyrimidin-4-yl)(methyl)amino)pyrrolidin-1-yl)-2-(1-methylazetidin-3-ylidene)ethan-1-one]
100 to 500 nM	CN(c1nc(OC[C@@]23CCCN2C[C@H](F)C3)nc2c(F)c(-c3cccc4ccc(F)c(Cl)c34)ncc12)[C@@H]1CCN(C(=O)/C=C/C2CCCO2)C1 (stereo partly drawn) [Example 252, (E)-1-((R)-3-((7-(8-chloro-7-fluoronaphthalen-1-yl)-8-fluoro-2-(((2R,7aS)-2-fluorotetrahydro-1H-pyrrolizin-7a(5H)-yl)methoxy)pyrido[4,3-d]pyrimidin-4-yl)(methyl)amino)pyrrolidin-1-yl)-3-(tetrahydrofuran-2-yl)prop-2-en-1-one]
10 to 100 nM	C=CC(=O)C1CCN(c2nc(OC[C@@H]3CCCN3C)nc3c2CCN(c2cccc4cccc(Cl)c24)C3)CC1 [Example 42, (S)-1-(1-(7-(8-chloronaphthalen-1-yl)-2-((1-methylpyrrolidin-2-yl)methoxy)-5,6,7,8-tetrahydropyrido[3,4-d]pyrimidin-4-yl)piperidin-4-yl)prop-2-en-1-one]

same assay, conditions: additional exemplary compounds; KRAS G12C and cRAF binding; read-out: RAF1 RBD IC50

IC50	Structure (SMILES)
> 500 nM	C=CC(=O)N1CCCC1CNc1nc(OC[C@@]23CCCN2C[C@H](F)C3)nc2c(F)c(-c3cccc4cccc(Cl)c34)ncc12 (stereo partly shown)
100 to 500 nM	CN(CCS(=O)(=O)/C=C/CN1CC(F)C1)c1nc(OCC23CCCN2CCC3)nc2c1CCN(c1cccc3cccc(Cl)c13)C2
> 500 nM	C=CC(=O)N1CCC[C@@H](N(C)c2nc(OCC34CCCN3CCC4)nc3c2CCN(c2cccc4cccc(Cl)c24)C3)C1
> 500 nM	CN(c1nc(OCC23CCCN2CCC3)nc2c(F)c(-c3cccc4cccc(Cl)c34)ncc12)[C@@H]1CCN(C(=O)/C=C/c2nnn(C)n2)C1
> 500 nM	C=CC(=O)N1CCC(N(c2nc(OC[C@@]34CCCN3C[C@H](F)C4)nc3c(F)c(-c4cccc5cccc(Cl)c45)ncc23)C2CC2)C1 (stereo partly shown)
> 500 nM	C=CC(=O)N1CC(N(C)c2nc(OC[C@@]34CCCN3C[C@H](F)C4)nc3c2CCN(c2cccc4cccc(Cl)c24)C3)C1
> 500 nM	C=CC(=O)N1CCC(N(c2nc(OCC34CCCN3CCC4)nc3c(F)c(-c4cccc5cccc(Cl)c45)ncc23)C2CC2)C1 (stereo not shown)
10 to 100 nM	C=CC(=O)N1CC(CN(C)c2nc(OC[C@@]34CCCN3C[C@H](F)C4)nc3c(F)c(-c4cccc5ccc(F)c(Cl)c45)ncc23)C1
10 to 100 nM	C=CC(=O)N1CC[C@@H](N(C)c2nc(OC[C@@]34CCCN3C[C@H](F)C4)nc3c2CCN(c2cccc4ccc(F)c(Cl)c24)C3)C1
> 500 nM	C#Cc1c(F)ccc2cccc(-c3ncc4c(N(C)[C@@H]5CCN(C(=O)/C=C/c6ccncc6)C5)nc(OC[C@@]56CCCN5C[C@H](F)C6)nc4c3F)c12
100 to 500 nM	C=CC(=O)N1CC[C@@H](N(C)c2nc(OC[C@]34CCCN3C[C@@H](F)C4)nc3c(F)c(-c4cccc5cccc(Cl)c45)ncc23)C1
> 500 nM	CCOC/C=C/S(=O)(=O)CCN(C)c1nc(OC[C@@H]2CCCN2C)nc2c(F)c(-c3cccc4cccc(Cl)c34)ncc12
